We go through one sequence from ChEMBL document CHEMBL1909046, “DrugMatrix in vitro pharmacology data”.

Data set [1] is described as follows: DRUGMATRIX: Calcium Channel Type L, Phenylalkylamine radioligand binding (ligand: [3H] (-)-Desmethoxyverapamil (D-888)). As to conditions: Not Active = under 50% inhibition at 10 µM. In kind it is cell membranes, Rattus norvegicus, Wistar, Brain, Membrane.
A further data set concerns the target T1, Substance-K receptor (Homo sapiens, UniProt P21452). Also: in other assays of this panel Not Active means under 50% inhibition at 10 µM.
T1 sequence (P21452 whole entry): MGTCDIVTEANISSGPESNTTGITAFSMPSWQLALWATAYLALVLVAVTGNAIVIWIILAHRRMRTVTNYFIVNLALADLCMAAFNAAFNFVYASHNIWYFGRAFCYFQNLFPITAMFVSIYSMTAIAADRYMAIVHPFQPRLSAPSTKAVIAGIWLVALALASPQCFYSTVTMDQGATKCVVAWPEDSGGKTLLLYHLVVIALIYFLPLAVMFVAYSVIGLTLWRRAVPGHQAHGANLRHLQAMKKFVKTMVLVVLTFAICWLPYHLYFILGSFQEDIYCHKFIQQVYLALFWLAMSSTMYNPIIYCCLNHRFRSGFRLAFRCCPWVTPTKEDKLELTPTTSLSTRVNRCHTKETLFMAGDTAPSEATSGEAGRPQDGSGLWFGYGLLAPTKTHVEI
In kind it is cell membranes, CHO, Membrane. The settings on record: cho.

The target of the next data set is T2, Cytochrome P450 1A2 (Homo sapiens, UniProt P05177). Also: in other assays of this panel Not Active means under 50% inhibition at 10 µM.
T2 sequence (P05177 whole entry): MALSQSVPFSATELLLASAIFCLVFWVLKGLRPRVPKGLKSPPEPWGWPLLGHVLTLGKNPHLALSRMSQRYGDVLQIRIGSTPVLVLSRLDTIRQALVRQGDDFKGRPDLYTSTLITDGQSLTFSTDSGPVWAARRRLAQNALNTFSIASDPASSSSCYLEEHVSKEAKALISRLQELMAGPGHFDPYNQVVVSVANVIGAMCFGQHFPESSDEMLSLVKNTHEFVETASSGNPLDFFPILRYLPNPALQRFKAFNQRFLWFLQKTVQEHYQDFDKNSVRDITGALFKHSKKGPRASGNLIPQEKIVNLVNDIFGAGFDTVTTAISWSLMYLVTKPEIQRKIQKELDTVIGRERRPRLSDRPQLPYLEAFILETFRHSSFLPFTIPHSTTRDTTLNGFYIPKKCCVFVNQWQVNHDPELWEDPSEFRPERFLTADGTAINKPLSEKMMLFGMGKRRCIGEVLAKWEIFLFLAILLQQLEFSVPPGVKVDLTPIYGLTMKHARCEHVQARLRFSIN
The settings on record: bti-tn-5b1-4.

The target in data set [2] is Receptor tyrosine-protein kinase erbB-2 (Homo sapiens, UniProt P04626). Briefly: biochemical. Format: cell-based, Insect cells. The settings on record: insect cells; read-out: IC50.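 Also: inhibition of HER2 kinase enzyme activity, measured with Poly(Glu:Tyr) as the phosphorylation substrate; in other assays of this panel Not Active means under 50% inhibition at 10 µM.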
For a further data set, the target named is T3, B2 bradykinin receptor (Homo sapiens, UniProt P30411). Also: in other assays of this panel Not Active means under 50% inhibition at 10 µM.
T3 sequence (P30411 whole entry): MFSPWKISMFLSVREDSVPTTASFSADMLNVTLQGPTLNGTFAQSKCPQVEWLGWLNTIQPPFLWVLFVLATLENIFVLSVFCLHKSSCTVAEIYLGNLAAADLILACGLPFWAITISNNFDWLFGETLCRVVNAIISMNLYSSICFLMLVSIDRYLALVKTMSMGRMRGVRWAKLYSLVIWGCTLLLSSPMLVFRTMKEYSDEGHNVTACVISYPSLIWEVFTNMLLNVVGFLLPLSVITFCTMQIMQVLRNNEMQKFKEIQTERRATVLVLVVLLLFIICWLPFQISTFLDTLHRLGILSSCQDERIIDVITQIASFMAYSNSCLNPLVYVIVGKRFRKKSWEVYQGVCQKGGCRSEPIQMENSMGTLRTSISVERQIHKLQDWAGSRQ
Format: cell membranes, Membrane. As to conditions: chem-1.

Data set [3] deals with T4, 3-hydroxy-3-methylglutaryl-coenzyme A reductase (Homo sapiens, UniProt P04035).
T4 sequence (P04035 whole entry): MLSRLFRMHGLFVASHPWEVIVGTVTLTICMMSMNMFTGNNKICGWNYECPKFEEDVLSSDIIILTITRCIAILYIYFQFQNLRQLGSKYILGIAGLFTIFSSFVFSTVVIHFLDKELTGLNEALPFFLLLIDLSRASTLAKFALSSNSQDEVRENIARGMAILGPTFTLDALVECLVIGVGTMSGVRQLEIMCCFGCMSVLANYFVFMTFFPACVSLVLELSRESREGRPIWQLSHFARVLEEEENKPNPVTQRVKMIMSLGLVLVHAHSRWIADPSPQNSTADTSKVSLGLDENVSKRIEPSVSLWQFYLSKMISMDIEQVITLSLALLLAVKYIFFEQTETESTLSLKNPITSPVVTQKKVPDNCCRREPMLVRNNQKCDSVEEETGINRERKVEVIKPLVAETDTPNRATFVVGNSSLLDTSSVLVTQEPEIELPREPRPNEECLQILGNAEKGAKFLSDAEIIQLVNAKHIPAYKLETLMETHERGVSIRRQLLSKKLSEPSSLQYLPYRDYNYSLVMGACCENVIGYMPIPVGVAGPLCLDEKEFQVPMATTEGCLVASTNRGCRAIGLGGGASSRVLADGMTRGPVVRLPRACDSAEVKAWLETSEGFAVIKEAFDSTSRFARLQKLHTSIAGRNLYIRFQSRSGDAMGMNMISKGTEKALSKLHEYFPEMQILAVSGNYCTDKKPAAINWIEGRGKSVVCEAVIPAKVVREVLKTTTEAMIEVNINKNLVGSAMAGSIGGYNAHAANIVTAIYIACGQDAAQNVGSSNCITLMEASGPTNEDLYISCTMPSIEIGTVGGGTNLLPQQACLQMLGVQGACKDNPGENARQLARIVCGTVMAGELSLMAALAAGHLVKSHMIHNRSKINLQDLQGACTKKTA
The arrangement: species or system Escherichia coli.

LIPOPOLYSACCHARIDE E. COLI O55:B5: the IC50 result in data set [1] is “Not Active”; on Substance-K receptor it was “Not Active”; on Cytochrome P450 1A2 it was “Not Active”; in data set [2] it was 449 nM; on B2 bradykinin receptor, “Not Active”; in data set [3] it was “Not Active”. The Ki entry (in data set [1]; on Substance-K receptor; on Cytochrome P450 1A2; at B2 bradykinin receptor; in data set [3]) was “Not Active” in each case.
